Assays:
[1] = molecular target: T1, human recombinant TRPV1 receptor expressed in CHO cells (Homo sapiens, UniProt Q8NER1); assay: TRPV1 functional assay (agonist and antagonist effects); assay type: cell-based; settings: 10 µM
T1 construct: host or cells: CHO cells
Experimental: (§1) In order to identify molecular mechanism of action, KM-568 was tested at 10 µM in three radioligand binding assays: rat cerebral cortex GABA receptor non-selective agonist radioligand, AMPA (α-amino-3-hydroxy-5-methyl-4-isoxazolepropionic acid) receptor agonist radioligand, and NMDA (N-methyl-D-aspartate) receptor antagonist radioligand as well as one functional assay involving a human recombinant TRPV1 receptor expressed in CHO cells (agonist and antagonist effects).
(§2) Tests were performed by Eurofins Cerep (Eurofins CEREP SA, Celle-Lévescault, France) as a commercial service. In radioligand assays, rat cerebral cortex GABA receptor as well as rat cerebral cortex AMPA (α-amino-3-hydroxy-5-methyl-4-isoxazolepropionic acid) and NMDA (N-methyl-D-aspartate) receptors with 10 nM [^3H]GABA, 8 nM [^3H]AMPA, and 5 nM [^3H]CGP39653, respectively, were used. The results were detected by means of scintillation counting. In functional assays, a human recombinant TRPV1 receptor expressed in Chinese hamster ovary (CHO) cells with 1 µM capsaicin or 30 nM capsazepine were used. Fluorimetry was used as a detection method.

mice = assay: Subcutaneous metrazol seizure threshold test (scMET), mice; assay type: in vivo; settings: for ED50: Mus musculus, 95% confidence interval in parentheses
Experimental: In vivo activity testing was performed at the Epilepsy Branch, National Institute of Neurological Disorders and Stroke, National Institutes of Health (NIH, Bethesda, USA) within the Anticonvulsant Screening Program (ASP) (currently known as the Epilepsy Therapy Screening Program (ETSP)). Pharmacological evaluation was planned and performed in accordance with the Institute of Laboratory Resources polices on the humane care of laboratory animals and approved by the University of Utah’s Institutional Animal Care and Use Committee (IACUC). All testing protocols were previously published as well as they are available on the NIH website. In the tests, albino mice Carworth Farms No.1 (CF-1) (Charles River), C57/Bl6 mice (Charles River), Frings mice (University of Utah) or male rats Sprague–Dawley (Charles River) were used. All animals were housed, fed, and handled in a manner consistent with the recommendations in the National Council Publication, ‘Guide for the Care and Use of Laboratory animals’ [51]. The tested compound was suspended in 0.5% methylcellulose.
The tested compound was administered i.p. or p.o. at certain dose. Then, subcutaneous injection of metrazol (syn. pentetrazol, pentylenepentetrazol) dissolved in 0.9% NaCl at the dose of 85 mg/kg (mice) or 70 mg/kg (rats) was performed to induce seizures. Protection was scored if there was not an observed episode of clonic spasm of at least 5 sec.

[2] = Neurotoxicity (TOX), behavioral tests, rats; assay type: in vivo; settings: rat, in vivo
Experimental: (§3) In mice, the neurological deficit was measured by the rotarod test in which a 1 inch diameter knurled plastic rod rotating at 6 rpm was used. Tests were performed at 0.25 h or 0.5 h of intraperitoneal or oral administration of the certain dose of the compounds KM-568. Each mouse was placed on the rod. If the animal was not able to remain on the rod for at least 1 min in each of three trials, the neurotoxicity was scored. In rats, the neurological deficit was measured in behavioral tests and scored when ataxia and loss of placing response and muscle tone were observed. Tests in rats were performed after 0.5 h of intraperitoneal administration or 1.0 h of oral administration of the certain dose of compound KM-568. TD50s were calculated by probit analysis.

rats = assay: Neurotoxicity (TOX), behavioral tests, rats; assay type: in vivo
Experimental: as §3

HepG2 cells = assay: LDH cytotoxicity assay, HepG2; assay type: cell-based, human; settings: HepG2, up to 100 µM, 24 h
Experimental: Human liver cancer HepG2 cell line (ATCC HB8065) and rat cardiomyoblast cell line H9c2 (ATCC-CRL1446) were purchased in ATCC (American Type Culture Collection, Manassas, VA, USA). The cells were cultured in standard conditions (37 °C, 5% CO2) in EMEM medium (ATCC, Manassas, VA, USA), supplemented with 10% FBS (Gibco, Waltham, MA, USA) and antibiotics (1% streptomycin/penicillin mixture, Sigma–Aldrich, Darmstadt, Germany) or DMEM high glucose (ATCC, Manassas, VA, USA) supplemented with 10% FBS (Gibco, Waltham, MA, USA) and antibiotics (1% streptomycin/penicillin mixture, Sigma–Aldrich, Darmstadt, Germany), respectively.
Cells were seeded at density 5 × 10^4 cells/per well. After 24 h, KM-568 and reference standard DOX were added to final concentrations of 0.1; 0.5; 1.0; 10; 25; 50; 100; 200 µM. After 24 h incubation, plates were centrifuged (400 g, 2 min) and 50 μL of the supernatant was transferred into the corresponding 96-well plate. […] Next, stop solution was added and absorbance was measured at 490 nm on a multi-well plate reader (Spectra Max iD3, Molecular Devices, San Jose, CA, USA). Cytotoxicity was determined as follows: cytotoxicity (%)=[(compound LDH activity – spontaneous LDH activity)/(maximum LDH activity – spontaneous LDH activity)] × 100. […]

[3] = system: rat cerebral cortex AMPA receptor; assay: AMPA receptor radioligand binding ([3H]AMPA); settings: 10 µM; agonist radioligand
Experimental: as §1, §2

T1 sequence (Q8NER1 whole entry): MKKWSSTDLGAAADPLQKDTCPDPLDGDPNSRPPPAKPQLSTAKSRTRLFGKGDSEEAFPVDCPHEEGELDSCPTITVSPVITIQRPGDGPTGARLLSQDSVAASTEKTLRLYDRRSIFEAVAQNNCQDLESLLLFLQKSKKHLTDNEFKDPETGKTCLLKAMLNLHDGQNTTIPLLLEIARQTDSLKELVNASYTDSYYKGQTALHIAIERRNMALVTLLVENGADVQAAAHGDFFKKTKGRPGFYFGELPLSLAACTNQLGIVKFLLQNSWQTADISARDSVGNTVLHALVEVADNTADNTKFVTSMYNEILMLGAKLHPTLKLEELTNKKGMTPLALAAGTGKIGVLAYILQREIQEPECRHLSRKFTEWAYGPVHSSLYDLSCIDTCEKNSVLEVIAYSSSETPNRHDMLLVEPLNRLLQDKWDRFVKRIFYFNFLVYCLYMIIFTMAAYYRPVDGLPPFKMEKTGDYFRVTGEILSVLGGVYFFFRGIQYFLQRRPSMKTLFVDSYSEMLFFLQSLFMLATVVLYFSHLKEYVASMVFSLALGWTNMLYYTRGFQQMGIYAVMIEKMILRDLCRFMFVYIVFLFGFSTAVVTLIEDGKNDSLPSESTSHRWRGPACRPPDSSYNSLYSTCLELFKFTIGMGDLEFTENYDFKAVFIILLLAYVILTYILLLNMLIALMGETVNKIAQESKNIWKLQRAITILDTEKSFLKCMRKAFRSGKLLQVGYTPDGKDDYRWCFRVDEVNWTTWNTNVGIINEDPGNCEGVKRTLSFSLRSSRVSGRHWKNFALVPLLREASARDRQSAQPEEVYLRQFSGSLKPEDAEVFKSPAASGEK

C[C@H](O)CNC(=O)/C=C/c1ccccc1 [KM-568, S(+)-(2E)-N-(2-hydroxypropyl)-3-phenylprop-2-enamide]
TRPV1 agonist effect [1]: No significant effects | TRPV1 antagonist effect [1]: No significant effects | ED50 (mice; ip, 0.25 h): 104 mg/kg | ED50 (mice; po, 0.5 h): 107 mg/kg | scMET Results (protected/tested animals) (mice; i.p., 70 mg/kg, 0.25 h): 2/8 | scMET Results (protected/tested animals) (mice; i.p., 100 mg/kg, 0.25 h): 3/8 | scMET Results (protected/tested animals) (mice; i.p., 138 mg/kg, 0.25 h): 5/8 | scMET Results (protected/tested animals) (mice; i.p., 170 mg/kg, 0.25 h): 8/8 | scMET Results (protected/tested animals) (mice; p.o., 50 mg/kg, 0.5 h): 1/8 | scMET Results (protected/tested animals) (mice; p.o., 100 mg/kg, 0.5 h): 4/8 | scMET Results (protected/tested animals) (mice; p.o., 150 mg/kg, 0.5 h): 4/8 | scMET Results (protected/tested animals) (mice; p.o., 200 mg/kg, 0.5 h): 8/8 | TD50 at 0.5 h ([2]; ip, 0.5 h, 95% confidence interval in parentheses): 95.2 mg/kg | TD50 at 1 h ([2]; po, 1.0 h): > 500 mg/kg | TOX Results (animals displaying neurotoxicity/animals used) (rats; i.p., 60 mg/kg, 0.5 h): 0/8 | TOX Results (animals displaying neurotoxicity/animals used) (rats; i.p., 80 mg/kg, 0.5 h): 0/8 | TOX Results (animals displaying neurotoxicity/animals used) (rats; i.p., 100 mg/kg, 0.5 h): 2/8 | TOX Results (animals displaying neurotoxicity/animals used) (rats; i.p., 120 mg/kg, 0.5 h): 5/8 | TOX Results (animals displaying neurotoxicity/animals used) (rats; i.p., 140 mg/kg, 0.5 h): 7/8 | TOX Results (animals displaying neurotoxicity/animals used) (rats; p.o., 125.0 mg/kg, 1.0 h): 0/2 | TOX Results (animals displaying neurotoxicity/animals used) (rats; p.o., 250.0 mg/kg, 1.0 h): 0/2 | TOX Results (animals displaying neurotoxicity/animals used) (rats; p.o., 500.0 mg/kg, 1.0 h): 0/2 | cytotoxic effect, LDH assay (HepG2 cells): no cytotoxic effect | Effect in AMPA receptor radioligand binding assay [3]: No significant effects

Source: publication PMC7352759, “S(+)-(2E)-N-(2-Hydroxypropyl)-3-Phenylprop-2-Enamide (KM-568): A Novel Cinnamamide Derivative with Anticonvulsant Activity in Animal Models of Seizures and Epilepsy” (International Journal of Molecular Sciences, 2020)
